Reference: US20230192626A1 (Baylor College of Medicine, priority 2020, published 2023)

target: T1, Human sEH (hsEH) (Homo sapiens, UniProt P34913); test: fluorescence-based sEH biochemical inhibition assay (PHOME substrate); settings: Table 1; hsEH 5 nM, PHOME 50 μM, 30° C.
T1 construct: purchased Cayman Chemicals
T1 sequence (P34913 1-555): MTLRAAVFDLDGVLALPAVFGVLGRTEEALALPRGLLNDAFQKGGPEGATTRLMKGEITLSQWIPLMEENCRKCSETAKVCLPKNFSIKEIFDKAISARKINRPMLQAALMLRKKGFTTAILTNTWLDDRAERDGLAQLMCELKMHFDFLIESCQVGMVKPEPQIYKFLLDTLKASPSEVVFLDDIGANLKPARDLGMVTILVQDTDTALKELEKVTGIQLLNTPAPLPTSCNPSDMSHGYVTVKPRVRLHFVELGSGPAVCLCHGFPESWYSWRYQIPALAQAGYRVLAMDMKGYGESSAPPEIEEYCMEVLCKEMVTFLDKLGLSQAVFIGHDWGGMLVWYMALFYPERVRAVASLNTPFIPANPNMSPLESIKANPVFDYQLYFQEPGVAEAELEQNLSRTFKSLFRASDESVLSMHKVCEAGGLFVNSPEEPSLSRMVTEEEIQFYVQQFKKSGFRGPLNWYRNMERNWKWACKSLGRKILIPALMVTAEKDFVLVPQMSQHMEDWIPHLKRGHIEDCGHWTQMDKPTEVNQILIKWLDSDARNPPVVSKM
Procedure: The benzimidazole-based compounds synthesized according to Example 1 were measured for activity. Using a fluorescence-based sEH biochemical inhibition assay, the IC50 value was measured for each benzimidazole-based compound. Human sEH (hsEH) and its substrate PHOME were purchased from Cayman Chemicals. IC50 values of hsEH inhibitors were determined by fluorescence. IC50 is defined as the concentration of the inhibitor that blocks 50% of the enzymatic activity. To a 96-well plate containing 10 μL enzyme (5 nM in water), 60 μL of H2O and 10 μL BisTris-HCl buffer (25 mM, pH 7.0) were added inhibitors with different concentrations. The mixture was incubated for 5 min at 30° C. prior to addition of 10 μL of PHOME substrate (50 μM). Fluorescence were measured at 30° C. with an excitation wavelength of 330 nm and an emission wavelength of 465 nm using a BioTek H1 plate reader. The IC50 values were calculated by non-linear regression fitting. The curve was generated from at least three separate runs, each in duplicates. Results are given as means and standard deviations. In Table 1, an IC50 value less than or equal to 1 μM is indicated as an “A.” an IC50 value from greater than 1 μM to less than 10 μM is indicated as a “B′” and an IC50 value of greater than or equal to 10 μM is indicated as a “C.”
Additional benzimidazole-based compounds as described herein were measured for activity according to the procedure outlined in Example 2. Briefly, using a fluorescence-based sEH biochemical inhibition assay, the IC50 value was measured for each benzimidazole-based compound.

Structure (SMILES)	IC50
Fc1ccc(Oc2ccc(-c3nc4cc(F)c(F)cc4[nH]3)cc2)cc1 [Compound 52, 5,6-difluoro-2-(4-(4-fluorophenoxy)phenyl)-1H-benzo[d]imidazole]	≤ 1 µM
Cc1cc2nc(-c3ccc(F)cc3F)[nH]c2cc1C [Compound 10, 2-(2,4-difluorophenyl)-5,6-dimethyl-1H-benzo[d]imidazole]	≥ 10 µM
Fc1cc2nc(-c3ccc(-c4ccccc4)cc3)[nH]c2cc1F [Compound 17, 2-([1,1′-biphenyl]-4-y)-5,6-difluoro-1H-benzo[d]imidazole]	1 to 10 µM
C[C@H](N)c1nc2cc(F)c(F)cc2[nH]1 [Compound 2, (S)-1-(5,6-difluoro-1λ^2-benzo[d]imidazol-2-yl)ethan-1-amine]	≥ 10 µM
CC(C)(C)c1ccc2[nH]c(-c3ccc(C(F)(F)F)cc3)nc2c1 [Compound 40, 5-(tert-butyl)-2-(4-(trifluoromethyl)phenyl)-1H-benzo[d]imidazole]	1 to 10 µM
COc1ccc(Nc2nc3cc(C)c(C)cc3[nH]2)cc1OC [Compound 7, N-(3,4-dimethoxyphenyl)-5,6-dimethyl-1H-benzo[d]imidazol-2-amine]	1 to 10 µM
Cc1cc2nc(Oc3ccc(OC(F)(F)F)cc3)[nH]c2cc1C [Compound 12, 5,6-dimethyl-2-(4-(trifluoromethoxy)phenoxy)-1H-benzo[d]imidazole]	≥ 10 µM
N[C@@H](c1ccccc1)c1nc2cc(F)c(F)cc2[nH]1 [Compound 1, (S)-(5,6-difluoro-1λ^2-benzo[d]imidazol-2-yl)(phenyl)methanamine]	≥ 10 µM
Cc1ccc2[nH]c(-c3ccc(C(F)(F)F)cc3)nc2c1C [Compound 41, 4,5-dimethyl-2-(4-(trifluoromethyl)phenyl)-1H-benzo[d]imidazole]	≤ 1 µM
FC(F)(F)c1ccc(-c2nc3ccccc3[nH]2)cc1 [Compound 36, 2-(4-(trifluoromethyl)phenyl)-1H-benzo[d]imidazole]	1 to 10 µM
Cc1noc(-c2ccc(-c3nc4cc(F)c(F)cc4[nH]3)cc2)n1 [Compound 60, 5-(4-(5,6-difluoro-1H-benzo[d]imidazol-2-yl)phenyl)-3-methyl-1,2,4-oxadiazole]	≥ 10 µM
COC(=O)c1ccc(-c2nc3cc(F)c(F)cc3[nH]2)cc1 [Compound 57, Methyl 4-(5,6-difluoro-1H-benzo[d]imidazol-2-yl)benzoate]	≥ 10 µM
CCc1ccc(-c2nc3cc(F)c(F)cc3[nH]2)cc1 [Compound 35, 2-(4-ethylphenyl)-5,6-difluoro-1H-benzo[d]imidazole imidazole]	≤ 1 µM
Fc1cc2nc(-c3ccc(-c4nnco4)cc3)[nH]c2cc1F [Compound 58, 2-(4-(5,6-difluoro-1H-benzo[d]imidazol-2-yl)phenyl)-1,3,4-oxadiazole]	≥ 10 µM
CCc1ccc(-c2nc3cc(Br)c(Br)cc3[nH]2)cc1 [Compound 39, 5,6-dibromo-2-(4-ethylphenyl)-1H-benzo[d]imidazole]	1 to 10 µM
Cc1cc2nc(-c3ccncc3)[nH]c2cc1C [Compound 29, 5,6-dimethyl-2-(pyridin-4-yl)-1H-benzo[d]imidazole]	≥ 10 µM
O=C(Nc1cc(C(F)(F)F)cc(C(F)(F)F)c1)Nc1nc2ccccc2[nH]1 [Compound 14, 1-(1H-benzo[d]imidazol-2-yl)-3-(3,5-bis(trifluoromethyl)phenyl)urea]	≥ 10 µM
Cc1cc2nc(-c3ccc4ccccc4c3)[nH]c2cc1C [Compound 28, 5,6-dimethyl-2-(naphthalen-2-yl)-1H-benzo[d]imidazole]	≤ 1 µM
FC(F)(F)c1ccc(-c2nc3cc(Cl)c(Cl)cc3[nH]2)cc1 [Compound 34, 5,6-dichloro-2-(4-(trifluoromethyl)phenyl)-1H-benzo[d]imidazole]	1 to 10 µM
Cc1cc2nc(-c3cccc(C(C)(C)C)c3)[nH]c2cc1C [Compound 27, 2-(3-(tert-butyl)phenyl)-5,6-dimethyl-1H-benzo[d]imidazole]	≤ 1 µM
